Reference: patent US20230355597A1, “COMPOUNDS, COMPOSITIONS, AND METHODS FOR THE TREATMENT AND PREVENTION OF AVIAN PATHOGENIC E. COLI (APEC)” (OHIO STATE INNOVATION FOUNDATION, priority 2018, published 2023)

Columns and labels:
[1] = test system: APEC O78 biofilm formation; experiment: Biofilm assay (crystal violet); assay type: cell-based, avian pathogenic Escherichia coli (APEC); conditions: 100 µM, 48 h
Method: Biofilm assay. […] Briefly, APEC O78 was grown in LB broth in the presence of 100 µM of each compound in a 96-well plate at 37° C. for 10 h. The culture was then diluted 1:100 in fresh LB broth. The biofilm assay was performed in 96-well plate contain 150 µL of the diluted culture and 100 µM of each compound. The plate was then incubated aerobically without shaking at 37° C. for 48 h, washed twice with PBS to remove the non-adherent cells and stained with 200 µL of 0.1% CV in water at room temperature for 10 min. The plate was washed with PBS and biofilm was quantified by measuring the absorbance at 550 nm after solubilizing the CV in 200 µL of 30% acetic acid in water for 15 min.

[2] = test system: QS and virulence associated genes of APEC O78; experiment: qRT-PCR of QS-regulated and virulence factors genes; assay type: cell-based, avian pathogenic Escherichia coli (APEC); conditions: 100 µM, 10 h
[3] = test system: AI-2 activity of APEC O78; experiment: AI-2 bioluminescence indicator assay (V. harveyi BB170); conditions: APEC O78, 100 µM
AI-2 activity of APEC O2 = experiment: as above; conditions: APEC O2, 100 µM
AI-2 activity of APEC O8 = experiment: as above; conditions: APEC O8, 100 µM
[4] = test system: AI-2 activity of APEC O15; experiment: as above; conditions: APEC O15, 100 µM
[5] = test system: AI-2 activity of APEC O18; experiment: as above; conditions: APEC O18, 100 µM
[6] = test system: AI-2 activity of APEC O35; experiment: as above; conditions: APEC O35, 100 µM
[7] = test system: AI-2 activity of APEC O109; experiment: as above; conditions: APEC O109, 100 µM
[8] = test system: AI-2 activity of APEC O115; experiment: as above; conditions: APEC O115, 100 µM
Rif^r APEC O78 [9] = experiment: Wax moth (Galleria mellonella) larva infection model (AI-2 inhibitors); conditions: 72 h post treatment
Rif^r APEC O78 [10] = experiment: In vivo screening of quorum sensing inhibitors in APEC infected broiler chickens; conditions: for reduction in chicken mortality: DMSO control mortality normalized to 100%; for Mortality rate (%): oral gavage once a day, day 4 to day 8, DMSO control 66.7%; for Reduction in APEC lesions severity, Air-sacs (%) / Reduction in APEC lesions severity, Heart (%) / Reduction in APEC lesions severity, Liver (%) / Reduction in APEC lesions severity, Lung (%): vs DMSO treated control
APEC O78 in HD-11 cells = experiment: Intracellular survival assay (AI-2 inhibitors); assay type: cell-based, avian pathogenic Escherichia coli (APEC); conditions: O78, HD-11, 100 µM, 6 h
Description: Intracellular survival assay.

Caco-2 cells = experiment: LDH assay of AI-2 inhibitors; conditions: Caco-2, 100 µM, 24 h
APEC O2 in HD-11 cells = experiment: Intracellular survival assay (AI-2 inhibitors); conditions: O2, HD-11, 100 µM, 6 h
APEC O78 in THP-1 cells = experiment: Intracellular survival assay (AI-2 inhibitors); conditions: O78, THP-1, 100 µM, 6 h, vs DMSO
APEC O2 in THP-1 cells = experiment: Intracellular survival assay (AI-2 inhibitors); conditions: O2, THP-1, 100 µM, 6 h
AI-2 activity of APEC O1 = experiment: AI-2 bioluminescence indicator assay (V. harveyi BB170); conditions: APEC O1, 100 µM

SMILES | Inhibition % of AI-2 activity [3] [%] | Inhibition % of AI-2 activity (AI-2 activity of APEC O2) [%] | Inhibition % of AI-2 activity (AI-2 activity of APEC O8) [%] | Inhibition % of AI-2 activity [4] [%] | Inhibition % of AI-2 activity [5] [%] | Inhibition % of AI-2 activity [6] [%] | Inhibition % of AI-2 activity [7] [%] | reduction in chicken mortality (Rif^r APEC O78 [10]) [%] | Mortality rate (%) (Rif^r APEC O78 [10]) | Reduction in APEC lesions severity, Air-sacs (%) (Rif^r APEC O78 [10]) | Reduction in APEC lesions severity, Heart (%) (Rif^r APEC O78 [10]) | Reduction in APEC lesions severity, Liver (%) (Rif^r APEC O78 [10]) | Reduction in APEC lesions severity, Lung (%) (Rif^r APEC O78 [10]) | also measured
COCCN1CCC(CN(Cc2ccncc2)Cc2ccccc2Cl)CC1 [C1, {2-chlorobenzyl)([1(2-methoxyethyly-4-piperidinyl]methyl)4-pyridinyimethyl)amine] | 84 | 94 | 20 | 13 | 37 | 48 | 65 | 25 | 50 | 26.7 | 0 | 0 | 66.7 | induction of biofilm formation of APEC O78 [1]: up to 100%; expression of murD [2]: down-regulated; Inhibition % of AI-2 activity [8]: 64%; larval death (Rif^r APEC O78 [9]): no larval death
OCCC1CN(C2CCN(c3ccccc3)CC2)CCN1CCCc1ccccc1 (stereo not drawn) [C10] | 84 | 89 | 0 | 22 | 35 | 47 | 57 | 75 | 16.6 | 88.9 | 83.3 | 100 | 100 | clearance of intracellular APEC (APEC O78 in HD-11 cells): 100%; reduction of intracellular survival (APEC O78 in HD-11 cells; vs DMSO): 4 logs; expression of fliP [2]: down-regulated; toxicity (LDH) (Caco-2 cells): 27%; clearance of intracellular APEC (APEC O2 in HD-11 cells): 100%; reduction of intracellular survival (APEC O2 in HD-11 cells; vs DMSO): 3.3 logs; reduction of intracellular survival (APEC O78 in THP-1 cells): up to 0.7 logs; clearance of intracellular APEC (APEC O2 in THP-1 cells): 100%; reduction of intracellular survival (APEC O2 in THP-1 cells; vs DMSO): 4 logs; Inhibition % of AI-2 activity (AI-2 activity of APEC O1): 64%; average lesion score reduction (Rif^r APEC O78 [10]; liver, heart, lung and airsac, vs DMSO): 1.5-2.3; reduction of bacterial load in internal organs (Rif^r APEC O78 [10]; liver, lung, heart, and kidney, vs DMSO control, 'up to'): 3.4-4.3 log CFU/g
